Data reported in ChEMBL document CHEMBL2311253, “Isatin replacements applied to the highly selective, muscarinic M1 PAM ML137: continued optimization of an MLPCN probe molecule” (Bioorg Med Chem Lett, 2013).
pEC50: −log10 of the molar value. Activity calls are given as the source filed them. The rule behind the calls is not given here.

Legend:
Type in all cases: functional
[1] = target: T1, Muscarinic acetylcholine receptor M1 (Homo sapiens) (UniProt P11229); assay: Positive allosteric modulator activity at human muscarinic M1 receptor up to 30 uM by calcium mobilization assay
T1 sequence (whole entry): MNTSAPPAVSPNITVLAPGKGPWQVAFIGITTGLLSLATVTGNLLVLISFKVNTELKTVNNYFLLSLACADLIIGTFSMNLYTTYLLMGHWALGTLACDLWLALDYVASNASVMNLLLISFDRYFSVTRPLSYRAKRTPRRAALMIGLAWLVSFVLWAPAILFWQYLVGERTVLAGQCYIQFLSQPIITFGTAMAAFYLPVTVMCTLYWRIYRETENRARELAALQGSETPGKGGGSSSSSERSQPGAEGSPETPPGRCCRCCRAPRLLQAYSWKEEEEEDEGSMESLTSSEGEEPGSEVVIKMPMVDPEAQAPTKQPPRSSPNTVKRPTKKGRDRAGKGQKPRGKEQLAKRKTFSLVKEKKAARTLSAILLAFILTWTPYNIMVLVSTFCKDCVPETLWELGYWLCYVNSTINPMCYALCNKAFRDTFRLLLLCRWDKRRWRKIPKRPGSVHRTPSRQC

[2] = target: T1, Muscarinic acetylcholine receptor M1 (Homo sapiens); assay: Positive allosteric modulator activity at human muscarinic M1 receptor relative to acetylcholine by calcium mobilization assay; set-up: concentration or dose not given beside the values
[3] = target: T2, Muscarinic acetylcholine receptor M1 (Homo sapiens, UniProt P11229); assay: Positive allosteric modulator activity at human muscarinic M1 receptor by calcium mobilization assay
T2 sequence (P11229 whole entry): T1 sequence (whole entry)

[4] = target: T1, Muscarinic acetylcholine receptor M1 (Homo sapiens); assay: Positive allosteric modulator activity at human muscarinic M1 receptor assessed as fold shift of acetylcholine concentration curve to the left at 30 uM by calcium mobilization assay relative to untreated acetylcholine control
[5] = target: T3, Muscarinic acetylcholine receptor M4 (Homo sapiens) (UniProt P08173); assay: Positive allosteric modulator activity at human muscarinic M4 receptor by calcium mobilization assay
T3 sequence (whole entry): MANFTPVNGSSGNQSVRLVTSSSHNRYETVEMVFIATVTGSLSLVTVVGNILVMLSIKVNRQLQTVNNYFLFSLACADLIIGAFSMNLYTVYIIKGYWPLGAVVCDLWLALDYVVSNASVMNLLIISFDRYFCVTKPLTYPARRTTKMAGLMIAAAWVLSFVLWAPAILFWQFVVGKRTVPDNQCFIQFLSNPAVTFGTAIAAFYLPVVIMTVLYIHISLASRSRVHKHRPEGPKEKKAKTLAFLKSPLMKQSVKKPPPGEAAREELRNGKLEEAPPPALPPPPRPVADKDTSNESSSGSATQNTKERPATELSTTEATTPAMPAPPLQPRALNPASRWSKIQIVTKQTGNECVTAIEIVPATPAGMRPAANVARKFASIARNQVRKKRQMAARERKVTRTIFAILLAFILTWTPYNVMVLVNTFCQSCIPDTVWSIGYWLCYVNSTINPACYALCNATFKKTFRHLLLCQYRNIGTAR

Activity [1] | Activity [2] [%] | pEC50 [3] | SMILES | other results
inactive | – | – | O=C1N(Cc2ccc(-c3cn[nH]c3)cc2F)c2ccccc2C1(O)C(F)(F)F (racemic) | –
inactive | – | – | Cn1cc(-c2ccc(CN3CCc4ccccc43)c(F)c2)cn1 | –
inactive | – | – | Cn1cc(-c2ccc(Cn3c4ccccc4c4nccnc43)c(F)c2)cn1 | –
inactive | – | – | CC(=O)N(Cc1ccc(-c2cnn(C)c2)cc1F)c1ccccc1 | –
– | 52 | 5.28 | Cn1cc(-c2ccc(CN3C(=O)COc4ccccc43)c(F)c2)cn1 | –
– | 25 | < 5.00 | Cn1cc(-c2ccc(CN3C(=O)C(F)(C(F)(F)F)c4ccccc43)c(F)c2)cn1 (racemic) | –
– | 62 | < 5.00 | Cn1cc(-c2ccc(CN3C(=O)OCc4ccccc43)c(F)c2)cn1 | –
– | 29 | < 5.00 | Cn1cc(-c2ccc(CN3C(=O)C(O)(C(F)(F)F)c4ccccc43)c(Cl)c2)cn1 (racemic) | –
inactive | – | – | Cn1cc(-c2ccc(Cn3ccccc3=O)c(F)c2)cn1 | –
– | 28 | < 5.00 | Cn1cc(-c2ccc(CN3C(=O)C(C)(N)c4ccccc43)c(F)c2)cn1 (racemic) | –
– | 45 | 6.22 | Cn1cc(-c2ccc(CN3C(=O)C(=O)c4ccccc43)c(F)c2)cn1 | fold change (FC) [4]: 2.7
inactive | – | – | Cn1cc(-c2ccc(CN3C(=O)CCCc4ccccc43)c(F)c2)cn1 | –
inactive | – | – | COc1nc2ccccc2n1Cc1ccc(-c2cnn(C)c2)cc1F | –
– | 46 | < 5.00 | Cn1cc(-c2ccc(CN3C(=O)C[S+]([O-])c4ccccc43)c(F)c2)cn1 (centres undefined) | –
– | 53 | < 5.00 | Cn1cc(-c2ccc(CN3C(=O)NCc4ccccc43)c(F)c2)cn1 | –
– | 41 | < 5.00 | Cn1cc(-c2ccc(CN3c4ccccc4CS3(=O)=O)c(F)c2)cn1 | –
– | 59 | < 5.00 | Cn1cc(-c2ccc(CN3C(=O)C(O)(CF)c4ccccc43)c(F)c2)cn1 (racemic) | fold change (FC) [4]: 8
– | 36 | < 5.00 | Cn1cc(-c2ccc(CN3C(=O)CS(=O)(=O)c4ccccc43)c(F)c2)cn1 | –
– | 44 | 5.25 | Cn1cc(-c2ccc(CN3C(=O)CCc4ccccc43)c(F)c2)cn1 | –
inactive | – | – | Cn1cc(-c2ccc(CN3C(=O)C(F)(F)c4ccccc43)c(F)c2)cn1 | –

Activity [1] | Activity [2] [%] | pEC50 [3] | SMILES | other results
inactive | – | – | Cn1cc(-c2ccc(Cn3c(=O)[nH]c4ccccc43)c(F)c2)cn1 | –
inactive | – | – | Cn1cc(-c2ccc(CN3CC(c4ccccc4)CC3=O)c(F)c2)cn1 (centres undefined) | –
inactive | – | – | Cn1cc(-c2ccc(Cn3c4ccccc4c4cccnc43)c(F)c2)cn1 | –
inactive | – | – | Cn1cc(-c2ccc(CN3CCSc4ccccc43)c(F)c2)cn1 | –
– | 53 | < 5.00 | CC1C(=O)N(Cc2ccc(-c3cnn(C)c3)cc2F)c2ccccc21 (racemic) | –
inactive | – | – | Cn1cc(-c2ccc(CN3C(=O)c4cccc5cccc3c45)c(F)c2)cn1 | –
inactive | – | – | Cn1cc(-c2ccc(CN3C(=O)C(O)(C(F)(F)F)c4ccccc43)c(F)c2)cn1 (centres undefined) | –
– | 51 | < 5.00 | Cn1cc(-c2ccc(Cn3c(=O)ccc4ccccc43)c(F)c2)cn1 | –
inactive | – | – | CCCn1cc(-c2ccc(CN3C(=O)C(O)(C(F)(F)F)c4ccccc43)c(F)c2)cn1 (racemic) | –
– | 66 | 5.40 | Cn1cc(-c2ccc(CN3C(=O)C(O)(C(F)(F)F)c4ccccc43)cc2)cn1 (racemic) | fold change (FC) [4]: 15.2
– | 37 | 5.48 | CCn1cc(-c2ccc(CN3C(=O)C(O)(C(F)(F)F)c4ccccc43)c(F)c2)cn1 (racemic) | –
– | 50 | 5.89 | Cn1cc(-c2ccc(CN3C(=O)C(N)c4ccccc43)c(F)c2)cn1 (racemic) | –
inactive | – | – | COC1(C(F)(F)F)C(=O)N(Cc2ccc(-c3cnn(C)c3)cc2F)c2ccccc21 (racemic) | –
– | 48 | < 5.00 | CN(C)C1(C)C(=O)N(Cc2ccc(-c3cnn(C)c3)cc2)c2ccccc21 (racemic) | –
– | 64 | 5.62 | Cn1cc(-c2ccc(CN3C(=O)Cc4ccccc43)c(F)c2)cn1 | Activity [5]: Active; fold change (FC) [4]: 27.2
– | 57 | – | Cn1cc(-c2ccc(CN3C(=O)C(O)(C(F)(F)F)c4ccccc43)c(F)c2)cn1 (stereo in doubt; 23h) | fold change (FC) [4]: 12
– | 51 | – | Cn1cc(-c2ccc(CN3C(=O)C(O)(C(F)(F)F)c4ccccc43)c(F)c2)cn1 (racemic) | fold change (FC) [4]: 7.4
– | 30 | 5.49 | Cn1cc(-c2ccc(CN3C(=O)CSc4ccccc43)c(F)c2)cn1 | –
inactive | – | – | CC(C)n1cc(-c2ccc(CN3C(=O)C(O)(C(F)(F)F)c4ccccc43)c(F)c2)cn1 (racemic) | –
– | 49 | < 5.00 | Cn1cc(-c2ccc(CN3C(=O)C(C)(O)c4ccccc43)c(F)c2)cn1 (racemic) | fold change (FC) [4]: 6.5
